# Reference: publication PMC12467033, “Exploring the Inhibitory Potential of Six Porphyrin Compounds Against α-Amylase and α-Glucosidase Linked to Diabetes” (Biomolecules, 2025)
# Where “and” joins values, the source holds several entries; their conditions need not be identical. Equal entries are not always repeated. Where two headings read alike, the source gives them in different places.
# Experiments:
# α-amylase [1] = biological target: T1, α-amylase (Sus scrofa, UniProt P00690); assay: Mode of α-AMY inhibition (reversibility, Lineweaver–Burk kinetics); format: biochemical; settings: for type of inhibition of α-amylase: Lineweaver–Burk plots; for reversibility of inhibition of α-amylase: enzyme 100–400 U/L, substrate 5 mmol/L; for Kis: enzyme–substrate complex inhibition constant
# T1 sequence (P00690 16-511): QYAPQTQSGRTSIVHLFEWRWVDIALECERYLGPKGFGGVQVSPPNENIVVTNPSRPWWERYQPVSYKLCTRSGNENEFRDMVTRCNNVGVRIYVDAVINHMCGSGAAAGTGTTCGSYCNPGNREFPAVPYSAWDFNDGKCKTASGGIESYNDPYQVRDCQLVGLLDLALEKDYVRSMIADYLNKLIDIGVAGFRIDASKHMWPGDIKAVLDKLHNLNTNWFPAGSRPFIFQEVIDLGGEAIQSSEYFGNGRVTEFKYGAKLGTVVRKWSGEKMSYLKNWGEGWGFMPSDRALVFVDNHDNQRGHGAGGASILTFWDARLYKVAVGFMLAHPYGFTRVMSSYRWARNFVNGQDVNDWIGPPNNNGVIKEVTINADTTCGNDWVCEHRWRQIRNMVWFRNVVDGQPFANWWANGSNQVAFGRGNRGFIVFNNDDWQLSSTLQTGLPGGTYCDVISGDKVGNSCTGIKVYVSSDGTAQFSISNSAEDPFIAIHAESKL
# Excerpt: (§1) In the experiment, the concentration of the fixed substrate Gal-G2-α-CNP/pNPG solution was 5 mmol/L, and the concentrations of the two enzymes (100, 200, 300, 400 U/L) were used to determine the effect of different concentrations of porphyrins on enzyme activity. The concentration of the enzyme was 200 U/L, and the concentration of the substrate Gal-G2-α-CNP/pNPG solution (2.5, 5, 7.5, 10 mmol/L) was used to determine the effect of different concentrations of porphyrins on the enzyme-catalyzed substrate activity.
# (§2) Upon identifying the type of inhibition, the kinetic equations vary for different inhibition types.
# (§3) In the formula, v, Vmax, Km, Ki, and Kis represent the reaction rate, maximum reaction rate, Michaelis constant, and free enzyme inhibition constant, respectively, and the binding enzyme inhibition constant. [S] denotes the substrate concentration. [I] denotes the inhibitor concentration.
# α-glucosidase = α-glucosidase (Saccharomyces cerevisiae, UniProt P53341); format: biochemical; settings: for type of inhibition of α-glucosidase: Lineweaver–Burk plots; for reversibility of inhibition of α-glucosidase: enzyme 100–400 U/L, substrate 5 mmol/L
# α-glucosidase, sequence (P53341 whole entry): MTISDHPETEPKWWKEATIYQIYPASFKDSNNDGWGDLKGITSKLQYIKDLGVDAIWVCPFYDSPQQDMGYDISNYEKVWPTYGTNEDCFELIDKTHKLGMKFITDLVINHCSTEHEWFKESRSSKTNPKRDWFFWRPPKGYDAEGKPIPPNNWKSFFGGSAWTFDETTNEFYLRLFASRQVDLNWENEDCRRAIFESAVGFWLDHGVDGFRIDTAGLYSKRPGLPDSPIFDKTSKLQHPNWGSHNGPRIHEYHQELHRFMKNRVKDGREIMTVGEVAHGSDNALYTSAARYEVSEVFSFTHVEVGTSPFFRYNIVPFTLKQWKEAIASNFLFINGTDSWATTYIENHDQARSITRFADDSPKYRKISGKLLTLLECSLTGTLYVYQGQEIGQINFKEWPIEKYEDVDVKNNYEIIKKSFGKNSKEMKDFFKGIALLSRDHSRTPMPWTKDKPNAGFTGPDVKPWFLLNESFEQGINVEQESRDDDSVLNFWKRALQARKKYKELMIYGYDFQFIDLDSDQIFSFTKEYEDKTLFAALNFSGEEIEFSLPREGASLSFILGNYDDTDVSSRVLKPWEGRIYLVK
# Excerpt: as §1, §2, §3
# α-amylase [2] = biological target: T1, α-amylase; assay: Fluorescence quenching, binding and thermodynamics with α-amylase; settings: for quenching mechanism of α-amylase fluorescence: Stern–Volmer plots; for ΔH^0 / ΔS^0: Van’t Hoff
# Excerpt: In the α-amylase experiment, a series of porphyrins and amylase (200 U/L) were mixed in a volume ratio of 1:1.
# The Stern–Volmer equation [35] was adopted to determine the quenching mechanisms between six porphyrin compounds and both enzymes in the experimental group, with Formula (6):(6) F0/F=1+Ksv[Q]=1+Kqτ0[Q]
# The Stern–Volmer equation was adapted based on experimental data to more accurately characterize the quenching behavior [36], with Formula (7):(7) F0/F=e^Ksv[Q]=e^Kqτ0[Q]
# In the formula, the fluorescence quenching ratio was calculated as F0/F, where F0 corresponds to the emission intensity of pure α-amylase solution (control) and F denotes the intensity measured after the incremental addition of porphyrin ligands. KSV and Kq denote the Stern–Volmer quenching constant and the bimolecular quenching rate constant, respectively, τ0 (10^−8 s) is the average fluorescence lifetime of the fluorophore in the absence of quencher, and [Q] indicates the concentration of porphyrin compounds.
# Due to the presence of an internal filtration effect, a decrease in the fluorescence intensity of the system may occur. Therefore, all fluorescence data were corrected using Formula (8) to eliminate the internal filtration effect.(8) Fcor=Fobse^(Aex+Aem)/2
# The evaluation of the interaction forces between porphyrin compounds and the two enzymes can be achieved by calculating thermodynamic parameters. When both ΔH^0 and ΔS^0 are positive, the predominant interaction force is hydrophobic. When both ΔH^0 and ΔS^0 are negative, the main forces are hydrogen bonding and van der Waals forces. When ΔH^0 < 0 and ΔS^0 > 0, the primary interaction is electrostatic attraction.
# The thermodynamic parameters were calculated using Formulas (9) and (10), and then the Van’t Hoff plot for the interactions between the porphyrin compounds and the two enzymes was generated by plotting lnKa on the Y-axis versus 1/T on the X-axis.(9) lnKa=−ΔH^0/RT+ΔS^0/R (10) ΔG^0=ΔH^0−TΔS^0=−RTlnKa
# α-amylase [3] = biological target: T1, α-amylase; assay: FTIR secondary structure analysis of α-AMY complexes; settings: enzyme–porphyrin molar ratio 1:2, amide I band
# Excerpt: A molar ratio of 1:2 (α-amylase/α-glucosidase)–porphyrin solution was placed in a cryocentrifugal concentrator and the dried solid sample was mixed with dry KBr and measured using a Nicolet IS-50 FTIR Spectrometer (ThermoFisher, Waltham, MA, USA) with a scanning range of 4000–400 cm^−1 and a resolution of 4 cm^−1. The overlapping peaks in the amide I band (1700–1600 cm^−1) were further analyzed into multiple feature sub-peaks, and quantitative analysis of the relative content of various secondary structures in proteins using curve fitting methods was performed.
# [4] = free enzyme inhibition constant
smiles,measurement,setting,value
"O=C(O)c1ccc(-c2c3nc(c(-c4ccc(C(=O)O)cc4)c4ccc([nH]4)c(-c4ccc(C(=O)O)cc4)c4nc(c(-c5ccc(C(=O)O)cc5)c5ccc2[nH]5)C=C4)C=C3)cc1.[Cu+2] [Cu–TCPP, copper (II) meso-tetra (4-carboxyphenyl)porphyrin]",Km,α-amylase [1]; C 25 μg/mL,2.8021 ± 0.0410 µg/mL
same,Vmax,α-amylase [1]; C 25 μg/mL,0.1101 ± 0.0016 ΔOD/min
same,Km,α-amylase [1]; C 50 μg/mL,3.1685 ± 0.0729 µg/mL
same,Vmax,α-amylase [1]; C 50 μg/mL,0.1050 ± 0.0024 ΔOD/min
same,Km,α-amylase [1]; C 100 μg/mL,3.5949 ± 0.0569 µg/mL
same,Vmax,α-amylase [1]; C 100 μg/mL,0.0923 ± 0.0015 ΔOD/min
same,Km,α-amylase [1]; C 150 μg/mL,3.9016 ± 0.1355 µg/mL
same,Vmax,α-amylase [1]; C 150 μg/mL,0.0860 ± 0.0031 ΔOD/min
same,Km,α-amylase [1]; C 200 μg/mL,4.2470 ± 0.0673 µg/mL
same,Vmax,α-amylase [1]; C 200 μg/mL,0.0785 ± 0.0012 ΔOD/min
same,type of inhibition of α-amylase,α-amylase [1],mixed type
same,reversibility of inhibition of α-amylase,α-amylase [1],reversible inhibition
same,Kis,α-amylase [1],420.9420 ± 0.2189 µg/mL
same,Ki,α-amylase [1]; [4],135.8043 ± 0.1608 µg/mL
same,Km,α-glucosidase,3.3657 ± 0.0431 µg/mL and 3.8284 ± 0.1475 µg/mL and 4.7824 ± 0.1009 µg/mL and 5.4948 ± 0.1841 µg/mL and 6.4626 ± 0.1103 µg/mL
same,Vmax,α-glucosidase; C 5 μg/mL,0.1496 ± 0.0019 ΔOD/min
same,Vmax,α-glucosidase; C 10 μg/mL,0.1344 ± 0.0052 ΔOD/min
same,Vmax,α-glucosidase; C 25 μg/mL,0.1028 ± 0.0022 ΔOD/min
same,Vmax,α-glucosidase; C 50 μg/mL,0.0718 ± 0.0024 ΔOD/min
same,Vmax,α-glucosidase; C 100 μg/mL,0.0473 ± 0.0008 ΔOD/min
same,type of inhibition of α-glucosidase,α-glucosidase,mixed type
same,reversibility of inhibition of α-glucosidase,α-glucosidase,reversible inhibition
same,Kis,α-glucosidase; enzyme–substrate complex inhibition constant,38.9429 ± 0.1021 µg/mL
same,Ki,α-glucosidase; [4],13.7332 ± 0.0823 µg/mL
same,Ka,α-amylase [2]; 298–310 K,10^3–10^4 L/mol
same,quenching mechanism of α-amylase fluorescence,α-amylase [2]; 298–310 K,pure static quenching
same,Ka (binding constant),α-amylase [2]; T 298 K,0.20 ± 0.01 ×10^5 L/mol
same,Kq,α-amylase [2]; T 298 K,4.37 ± 0.07 ×10^12 L/mol/s
same,Ksv,α-amylase [2]; T 298 K,4.37 ± 0.07 ×10^4 L/mol
same,n (number of binding sites),α-amylase [2]; T 298 K,0.93
same,ΔG^0,α-amylase [2]; T 298 K,-5.868 ± 0.012 kcal/mol
same,Ka (binding constant),α-amylase [2]; T 304 K,0.10 ± 0.01 ×10^5 L/mol
same,Kq,α-amylase [2]; T 304 K,4.33 ± 0.03 ×10^12 L/mol/s
same,Ksv,α-amylase [2]; T 304 K,4.33 ± 0.03 ×10^4 L/mol
same,n (number of binding sites),α-amylase [2]; T 304 K,0.84
same,ΔG^0,α-amylase [2]; T 304 K,-5.566 ± 0.0072 kcal/mol
same,Ka (binding constant),α-amylase [2]; T 310 K,0.06 ± 0.01 ×10^5 L/mol
same,Kq,α-amylase [2]; T 310 K,4.32 ± 0.02 ×10^12 L/mol/s
same,Ksv,α-amylase [2]; T 310 K,4.32 ± 0.02 ×10^4 L/mol
same,n (number of binding sites),α-amylase [2]; T 310 K,0.78
same,ΔG^0,α-amylase [2]; T 310 K,-5.337 ± 0.012 kcal/mol
same,ΔH^0,α-amylase [2]; 298–310 K,-19.04 ± 0.017 kcal/mol
same,ΔS^0,α-amylase [2]; 298–310 K,−185.16 ± 0.05 J/mol/k
same,Random Coil,α-amylase [3],20.94 ± 0.06%
same,α-Helix,α-amylase [3],20.76 ± 0.05%
same,β-Antiparallel,α-amylase [3],12.17 ± 0.02%
same,β-Sheet,α-amylase [3],10.94 ± 0.01%
same,β-Turn,α-amylase [3],35.19 ± 0.06%
Oc1ccc(-c2c3nc(c(-c4ccc(O)cc4)c4ccc([nH]4)c(-c4ccc(O)cc4)c4nc(c(-c5ccc(O)cc5)c5ccc2[nH]5)C=C4)C=C3)cc1 [THPP],Vmax,α-amylase [1]; C 20 μg/mL,0.0740 ± 0.0028 ΔOD/min
same,Vmax,α-amylase [1]; C 30 μg/mL,0.0580 ± 0.0010 ΔOD/min
same,Vmax,α-amylase [1]; C 40 μg/mL,0.0491 ± 0.0012 ΔOD/min
same,Vmax,α-amylase [1]; C 50 μg/mL,0.0426 ± 0.0013 ΔOD/min
same,Vmax,α-amylase [1]; C 60 μg/mL,0.0376 ± 0.0012 ΔOD/min
same,type of inhibition of α-amylase,α-amylase [1],mixed type
same,reversibility of inhibition of α-amylase,α-amylase [1],reversible inhibition
same,Kis,α-amylase [1],23.1012 ± 0.1027 µg/mL
same,Vmax,α-glucosidase; C 1 μg/mL,0.1528 ± 0.0020 ΔOD/min
same,Vmax,α-glucosidase; C 2.5 μg/mL,0.1013 ± 0.0035 ΔOD/min
same,Vmax,α-glucosidase; C 5 μg/mL,0.0649 ± 0.0019 ΔOD/min
same,Vmax,α-glucosidase; C 7.5 μg/mL,0.0489 ± 0.0009 ΔOD/min
same,Vmax,α-glucosidase; C 10 μg/mL,0.0377 ± 0.0009 ΔOD/min
same,type of inhibition of α-glucosidase,α-glucosidase,non-competitive inhibition
same,reversibility of inhibition of α-glucosidase,α-glucosidase,reversible inhibition
same,quenching mechanism of α-amylase fluorescence,α-amylase [2]; 298–310 K,pure static quenching
same,Kq,α-amylase [2]; T 298 K,8.90 ± 0.06 ×10^12 L/mol/s
same,Ksv,α-amylase [2]; T 298 K,8.90 ± 0.06 ×10^4 L/mol
same,n (number of binding sites),α-amylase [2]; T 298 K,1.19
same,ΔG^0,α-amylase [2]; T 298 K,-7.844 ± 0.019 kcal/mol
same,Kq,α-amylase [2]; T 304 K,8.20 ± 0.02 ×10^12 L/mol/s
same,Ksv,α-amylase [2]; T 304 K,8.20 ± 0.02 ×10^4 L/mol
same,n (number of binding sites),α-amylase [2]; T 304 K,1.16
same,ΔG^0,α-amylase [2]; T 304 K,-7.737 ± 0.019 kcal/mol
same,Kq,α-amylase [2]; T 310 K,7.64 ± 0.07 ×10^12 L/mol/s
same,Ksv,α-amylase [2]; T 310 K,7.64 ± 0.07 ×10^4 L/mol
same,n (number of binding sites),α-amylase [2]; T 310 K,1.12
same,ΔG^0,α-amylase [2]; T 310 K,-7.646 ± 0.017 kcal/mol
same,ΔH^0,α-amylase [2]; 298–310 K,-12.73 ± 0.012 kcal/mol
same,ΔS^0,α-amylase [2]; 298–310 K,−68.61 ± 0.06 J/mol/k
same,Random Coil,α-amylase [3],17.71 ± 0.07%
same,α-Helix,α-amylase [3],22.24 ± 0.06%
same,β-Antiparallel,α-amylase [3],13.37 ± 0.03%
same,β-Sheet,α-amylase [3],12.92 ± 0.05%
same,β-Turn,α-amylase [3],33.76 ± 0.08%
